Source: patent US20160229835A1, “NOVEL PYRIDYLOXYACETYL TETRAHYDROISOQUINOLINE COMPOUNDS USEFUL AS NAMPT INHIBITORS” (ELI LILLY AND COMPANY, priority 2013, published 2016)
pIC50: −log10 of the molar value.

Experiments:
NAMPT = NAMPT (Homo sapiens, UniProt P43490); assay: NAMPT Biochemical Assay (NMN formation by LC-MS); conditions: relative IC50; 1.5 nM NAMPT, 2 hours at room temperature; read-out: IC50 (inhibition of NAMPT catalytic activity, NMN formation)
Description: The purpose of this assay is to measure the ability of a compound to inhibit NAMPT catalytic activity. Reaction mixtures (25 μL) containing 50 mM HEPES at pH 7.5, 50 mM NaCl, 1 mM DTT, 0.005% TRITON® X-100, 1.5 μM phosphoribosyl-pyrophosphate, 0.5 μM nicotinamide (NAM), 1.5 nM NAMPT, 2.5 mM ATP, 1.25 mM MgCl2, 4% (v/v) DMSO and compounds after a ten-point series dilution from either 1 μM to 50 pM or 0.1 μM to 5 pM (final) are prepared. The reaction mixtures are incubated at room temperature for 2 hours. The reaction is terminated by the addition of ACN (25 μL) containing nicotinamide mononucleotide-d4 (NMN-d4) as an internal standard (final concentration: 5 μM). […] A positive control group (enzyme and DMSO, but no compound) is used to measure minimum inhibition (0%) of NMN formation. Percent inhibition of compound treated groups is calculated relative to the minimum inhibition group. The relative IC50 for each compound is calculated from a dose response study and is the concentration necessary to achieve 50% inhibition at this time point using the above disclosed ranges of 1 μM to 50 pM (final). The data generated from the dose-response studies is fit to a four-parameter logistic equation using ACTIVITYBASE 4.0 Equation 205.

A2780 Cancer Cells = assay: LC-MS Analysis of NAD+ and Carbohydrate Metabolites in A2780 Cancer Cells; format: cell-based; conditions: A2780 cells, 24 hours
Description: The purpose of this assay is to measure effects of NAMPT inhibitors on NAD^+ formation in cancer cells. LC-MS analysis of NAD^+ metabolites: nicotinamide mononucleotide (NMN), NAD^+, reduced nicotinamide adenine dinucleotide (NADH), and nicotinamide adenine dinucleotide phosphate (NADP) is performed on an HPLC system coupled to a Thermo Quantum Ultra triple quadrupole mass spectrometer operated in positive heated electrospray mode with selected reaction monitoring detection. For cell extracts, 50 μL of extract and 10 μL of 10 μM internal standard (IS) solution is transferred to a 96-well plate, dried under nitrogen and reconstituted in 50 μL of water. For tissue extracts, 20 μL of extract and 10 μL of IS solution are dried and reconstituted in 50 μL water. The IS solution contains 10 μM nicotinamide-d4 (C/D/N Isotopes), nicotinic acid-d4 (C/D/N Isotopes), nicotinamide mononucleotide-d4 (prepared by custom synthesis) and nicotinamide 1,N^6-ethenoadenine dinucleotide in methanol. The metabolites are separated on a Waters XBRIDGE™ Amide (2.1×50 mm, 3 μm) with an injection volume of 10 μL and a flow rate of 1 mL/minute using 10 mM ammonium acetate in 95% acetonitrile for mobile phase A and 10 mM ammonium acetate in 50% acetonitrile for mobile phase B. The gradient is as follows: 0 minutes, 0% B; 2.5 minutes, 70% B; 2.51 minutes, 100% B; 2.8 minutes, 100% B; 2.81 minutes, 0% B, 3.6 minutes, 0% B.
The purpose of this assay is to measure effects of NAMPT inhibitors on the levels of metabolites such as glucose-6-phosphate/fructose-6-phosphate/fructose-1-phosphate collectively as hexose phosphate (HP), fructose-1,6-bisphosphate (FBP), glyceraldehyde-3-phosphate (G3P), dihydroxyacetone phosphate (DHAP), 3-phosphoglycerate (3PG), 2-phosphoglycerate (2PG), phosphoenoylpyruvate (PEP), gluconate-6-phosphate (GN6P), xylulose-5-phosphate (X5P), ribulose-5-phosphate (Ru5P), ribose-5-phosphate (R5P), sedoheptulose-7-phosphate/sedoheptulose-1-phosphate collectively as sedoheptulose phosphate (SP), erythrose-4-phosphate (E4P), and α-ketoglutarate (α-KG) derived from glycolysis, the TCA cycle, and the pentose-phosphate pathway in tumor cells. Cells (50,000/well) are grown as described above in 100 μL of Dulbecco's Modified Eagle Medium supplemented with 10% FBS (dialyzed) and 25 mM glucose, and treated with a compound in triplicates in the presence or absence of 10 μM nicotinic acid. After 24 hours of treatment, the growth medium is removed and 200 μL of 80% methanol is added to each well. After incubation at room temperature for 15 minutes, the resulting extracts are transferred to 96-deep-well plates and washed twice with 200 μL of 80% methanol/water. Then, the plates are heat sealed and stored at −80° C., or dried and reconstituted in 100 μL of 25 μM ethylenediaminetetraacetic acid and injected into LC-MS for analysis.
The LC-MS analysis for carbohydrate metabolites is performed as follows. Chromatographic separations are performed with an HPLC system, which is coupled to an AB Sciex triple quadrupole LC-MS mass spectrometer. Analytes with phosphates are analyzed as follows. The samples are dried and reconstituted in ACN/water solutions and are separated on a Phenomenex Luna amino HPLC column (2.1×30 mm 3 μm) under the conditions as described by Yuan et al. (Nature Protocols, 2012, […], 872-881.). The mass spectrometer is operated under negative ESI MRM mode.

Sequence of NAMPT (P43490 whole entry): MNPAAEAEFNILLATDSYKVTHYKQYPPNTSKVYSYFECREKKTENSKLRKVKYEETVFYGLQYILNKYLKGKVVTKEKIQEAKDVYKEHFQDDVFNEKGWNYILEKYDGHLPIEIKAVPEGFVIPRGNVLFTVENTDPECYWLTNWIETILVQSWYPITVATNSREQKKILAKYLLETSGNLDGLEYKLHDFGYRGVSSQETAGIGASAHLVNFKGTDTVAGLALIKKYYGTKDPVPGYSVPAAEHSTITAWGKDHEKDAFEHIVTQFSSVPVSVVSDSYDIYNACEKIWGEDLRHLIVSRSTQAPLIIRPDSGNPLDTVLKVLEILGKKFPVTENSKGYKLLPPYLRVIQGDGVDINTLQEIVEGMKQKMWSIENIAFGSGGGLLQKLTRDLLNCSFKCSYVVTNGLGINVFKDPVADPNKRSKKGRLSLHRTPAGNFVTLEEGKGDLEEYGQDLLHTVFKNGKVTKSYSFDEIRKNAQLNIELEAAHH

## COCCS(=O)(=O)Nc1ccc2c(c1)CCN(C(=O)COc1cccnc1)C2 [Example 2, 2-Methoxy-N-[2-[2-(3-pyridyloxy)acetyl]-3,4-dihydro-1H-isoquinolin-6-yl]ethanesulfonamide]
NAMPT
  pIC50: 8.96
A2780 Cancer Cells; compound 0.000508 μM
  Metabolite Levels (μM) DHAP: 0.5 µM
  Metabolite Levels (μM) FBP: 1.4 µM
  Metabolite Levels (μM) HP: 1.6 µM
  Metabolite Levels (μM) NAD: 0.527 µM
  Metabolite Levels (μM) SP: 0.2 µM
A2780 Cancer Cells; compound 0.00152 μM
  Metabolite Levels (μM) DHAP: 0.9 µM
  Metabolite Levels (μM) FBP: 1.8 µM
  Metabolite Levels (μM) HP: 1.6 µM
  Metabolite Levels (μM) NAD: 0.457 µM
  Metabolite Levels (μM) SP: 0.2 µM
A2780 Cancer Cells; compound 0.00457 μM
  Metabolite Levels (μM) DHAP: 3.2 µM
  Metabolite Levels (μM) FBP: 2.2 µM
  Metabolite Levels (μM) HP: 1.6 µM
  Metabolite Levels (μM) NAD: 0.255 µM
  Metabolite Levels (μM) SP: 0.2 µM
A2780 Cancer Cells; compound 0.0137 μM
  Metabolite Levels (μM) DHAP: 6.3 µM
  Metabolite Levels (μM) FBP: 3.2 µM
  Metabolite Levels (μM) HP: 1.9 µM
  Metabolite Levels (μM) NAD: 0.087 µM
  Metabolite Levels (μM) SP: 0.3 µM
A2780 Cancer Cells; compound 0.0412 μM
  Metabolite Levels (μM) DHAP: 6.5 µM
  Metabolite Levels (μM) FBP: 6.4 µM
  Metabolite Levels (μM) HP: 2.8 µM
  Metabolite Levels (μM) NAD: 0.039 µM
  Metabolite Levels (μM) SP: 0.5 µM
A2780 Cancer Cells; compound 0.123 μM
  Metabolite Levels (μM) DHAP: 7.1 µM
  Metabolite Levels (μM) FBP: 15.5 µM
  Metabolite Levels (μM) HP: 7.2 µM
  Metabolite Levels (μM) NAD: 0.023 µM
  Metabolite Levels (μM) SP: 1.3 µM
A2780 Cancer Cells; compound 0.37 μM
  Metabolite Levels (μM) DHAP: 7.1 µM
  Metabolite Levels (μM) FBP: 22.8 µM
  Metabolite Levels (μM) HP: 11.0 µM
  Metabolite Levels (μM) NAD: 0.022 µM
  Metabolite Levels (μM) SP: 2.2 µM
A2780 Cancer Cells; compound 1.111 μM
  Metabolite Levels (μM) DHAP: 7.3 µM
  Metabolite Levels (μM) FBP: 24.1 µM
  Metabolite Levels (μM) HP: 11.8 µM
  Metabolite Levels (μM) NAD: 0.017 µM
  Metabolite Levels (μM) SP: 2.5 µM
A2780 Cancer Cells; compound 3.333 μM
  Metabolite Levels (μM) DHAP: 7.6 µM
  Metabolite Levels (μM) FBP: 23.4 µM
  Metabolite Levels (μM) HP: 12.8 µM
  Metabolite Levels (μM) NAD: 0.02 µM
  Metabolite Levels (μM) SP: 2.5 µM
A2780 Cancer Cells; compound 10 μM
  Metabolite Levels (μM) DHAP: 7.7 µM
  Metabolite Levels (μM) FBP: 21.5 µM
  Metabolite Levels (μM) HP: 10.9 µM
  Metabolite Levels (μM) NAD: 0.02 µM
  Metabolite Levels (μM) SP: 2.1 µM
